Measured values taken from patent US20260232767A1, “INTERLEUKIN-23 RECEPTOR ANTAGONIST PEPTIDES FOR USE IN THE TREATMENT OF PSORIASIS” (Janssen Pharmaceutica NV, priority 2023, published 2026).

Tested on: subjects with moderate-to-severe plaque psoriasis
Assay: PSSD symptom and sign scores, Example 2
Format: in vivo, human
Conditions: for Change from Baseline in PSSD Sign Score, LSMean / Change from Baseline in PSSD Symptom Score, LSMean: MMRM

Structure (SMILES): CC(=O)NCCCC[C@@H]1NC(=O)[C@H](Cc2c[nH]c3c(C)cccc23)NC(=O)[C@H]([C@@H](C)O)NC(=O)[C@H](CC(N)=O)NC(=O)[C@@H](NC(C)=O)C(C)(C)SSC(C)(C)[C@@H](C(=O)N[C@@H](Cc2ccc(OCCN)cc2)C(=O)N[C@@H](Cc2ccc3ccccc3c2)C(=O)NC2(C(=O)N[C@@H](CCC(=O)O)C(=O)N[C@@H](CC(N)=O)C(=O)N[C@@H](Cc3cccnc3)C(=O)N(C)CC(N)=O)CCOCC2)NC1=O [IL-23 receptor antagonist peptide, Ac-[Pen]*-N-T-[W(7-Me)]-[Lys(Ac)]-[Pen]*-Phe[4-(2-aminoethoxy)]-[2-Nal]-[THP]-E-N-[3-Pal]-Sarc-NH2 (*[Pen]-[Pen]* formdisulfidebond)]
- Change from Baseline in PSSD Symptom Score, Mean (Week 4, 50 mg QD): −23.6
- Change from Baseline in PSSD Symptom Score, Median (Week 4, 50 mg QD): −23.0
- Change from Baseline in PSSD Sign Score, LSMean (Week 4, 50 mg QD): −28.0
- Change from Baseline in PSSD Symptom Score, LSMean (Week 4, 50 mg QD): −23.4
- Change from Baseline in PSSD Sign Score, Mean (Week 4, 100 mg BID): −33.3
- Change from Baseline in PSSD Sign Score, Median (Week 4, 100 mg BID): −32.0
- Change from Baseline in PSSD Symptom Score, Mean (Week 4, 100 mg BID): −26.1
- Change from Baseline in PSSD Symptom Score, Median (Week 4, 100 mg BID): −22.0
- Subjects Achieving PSSD Symptom Score 0 (%) (Week 4, 100 mg BID, Baseline Symptom Score ≥1, N=42): (4.8%)
- Change from Baseline in PSSD Sign Score, LSMean (Week 4, 100 mg BID): −32.9
- Change from Baseline in PSSD Symptom Score, LSMean (Week 4, 100 mg BID): −24.4
- Change from Baseline in PSSD Sign Score, Mean (Week 4, 100 mg QD): −31.1
- Change from Baseline in PSSD Sign Score, Median (Week 4, 100 mg QD): −32.5
- Change from Baseline in PSSD Symptom Score, Mean (Week 4, 100 mg QD): −19.4
- Change from Baseline in PSSD Symptom Score, Median (Week 4, 100 mg QD): −17.0
- Subjects Achieving PSSD Sign Score 0 (%) (Week 4, 100 mg QD, Baseline Sign Score ≥1, N=43): (2.3%)
- Subjects Achieving PSSD Symptom Score 0 (%) (Week 4, 100 mg QD, Baseline Symptom Score ≥1, N=43): (2.3%)
- Change from Baseline in PSSD Sign Score, LSMean (Week 4, 100 mg QD): −33.8
- Change from Baseline in PSSD Symptom Score, LSMean (Week 4, 100 mg QD): −24.5
- Change from Baseline in PSSD Sign Score, Mean (Week 8, 25 mg BID): −33.8
- Change from Baseline in PSSD Sign Score, Median (Week 8, 25 mg BID): −38.0
- Change from Baseline in PSSD Symptom Score, Mean (Week 8, 25 mg BID): −27.5
- Change from Baseline in PSSD Symptom Score, Median (Week 8, 25 mg BID): −22.0
- Subjects Achieving PSSD Sign Score 0 (%) (Week 8, 25 mg BID, Baseline Sign Score ≥1, N=41): (2.4%)
- Subjects Achieving PSSD Symptom Score 0 (%) (Week 8, 25 mg BID, Baseline Symptom Score ≥1, N=41): (7.3%)
- Change from Baseline in PSSD Sign Score, LSMean (Week 8, 25 mg BID): −34.1
- Change from Baseline in PSSD Symptom Score, LSMean (Week 8, 25 mg BID): −27.5
- Change from Baseline in PSSD Sign Score, Mean (Week 8, 25 mg QD): −33.0
- Change from Baseline in PSSD Sign Score, Median (Week 8, 25 mg QD): −40.0
- Change from Baseline in PSSD Symptom Score, Mean (Week 8, 25 mg QD): −32.3
- Change from Baseline in PSSD Symptom Score, Median (Week 8, 25 mg QD): −32.0
- Subjects Achieving PSSD Sign Score 0 (%) (Week 8, 25 mg QD, Baseline Sign Score ≥1, N=43): (4.7%)
- Subjects Achieving PSSD Symptom Score 0 (%) (Week 8, 25 mg QD, Baseline Symptom Score ≥1, N=43): (9.3%)
- Change from Baseline in PSSD Sign Score, LSMean (Week 8, 25 mg QD): −29.0
- Change from Baseline in PSSD Symptom Score, LSMean (Week 8, 25 mg QD): −27.1
- Change from Baseline in PSSD Sign Score, Mean (Week 8, 50 mg QD): −39.7
- Change from Baseline in PSSD Sign Score, Median (Week 8, 50 mg QD): −40.5
- Change from Baseline in PSSD Symptom Score, Mean (Week 8, 50 mg QD): −35.0
- Change from Baseline in PSSD Symptom Score, Median (Week 8, 50 mg QD): −36.0
- Subjects Achieving PSSD Sign Score 0 (%) (Week 8, 50 mg QD, Baseline Sign Score ≥1, N=43): (7.0%)
- Subjects Achieving PSSD Symptom Score 0 (%) (Week 8, 50 mg QD, Baseline Symptom Score ≥1, N=42): (9.5%)
- Change from Baseline in PSSD Sign Score, LSMean (Week 8, 50 mg QD): −40.1
- Change from Baseline in PSSD Symptom Score, LSMean (Week 8, 50 mg QD): −34.3
- Change from Baseline in PSSD Sign Score, Mean (Week 8, 100 mg BID): −48.3
- Change from Baseline in PSSD Sign Score, Median (Week 8, 100 mg BID): −52.0
- Change from Baseline in PSSD Symptom Score, Mean (Week 8, 100 mg BID): −41.7
- Change from Baseline in PSSD Symptom Score, Median (Week 8, 100 mg BID): −42.0
- Subjects Achieving PSSD Sign Score 0 (%) (Week 8, 100 mg BID, Baseline Sign Score ≥1, N=42): (9.5%)
- Subjects Achieving PSSD Symptom Score 0 (%) (Week 8, 100 mg BID, Baseline Symptom Score ≥1, N=42): (16.7%)
- Change from Baseline in PSSD Sign Score, LSMean (Week 8, 100 mg BID): −47.5
- Change from Baseline in PSSD Symptom Score, LSMean (Week 8, 100 mg BID): −39.2
- Change from Baseline in PSSD Sign Score, Mean (Week 8, 100 mg QD): −40.2
- Change from Baseline in PSSD Sign Score, Median (Week 8, 100 mg QD): −43.0
- Change from Baseline in PSSD Symptom Score, Mean (Week 8, 100 mg QD): −27.8
- Change from Baseline in PSSD Symptom Score, Median (Week 8, 100 mg QD): −26.0
- Subjects Achieving PSSD Sign Score 0 (%) (Week 8, 100 mg QD, Baseline Sign Score ≥1, N=43): (7.0%)
- Subjects Achieving PSSD Symptom Score 0 (%) (Week 8, 100 mg QD, Baseline Symptom Score ≥1, N=43): (14.0%)
- Change from Baseline in PSSD Sign Score, LSMean (Week 8, 100 mg QD): −43.2
- Change from Baseline in PSSD Symptom Score, LSMean (Week 8, 100 mg QD): −33.3
- Change from Baseline in PSSD Sign Score, Mean (Week 12, 25 mg BID): −38.5
- Change from Baseline in PSSD Sign Score, Median (Week 12, 25 mg BID): −40.0
- Change from Baseline in PSSD Symptom Score, Mean (Week 12, 25 mg BID): −32.0
- Change from Baseline in PSSD Symptom Score, Median (Week 12, 25 mg BID): −28.0
- Subjects Achieving PSSD Sign Score 0 (%) (Week 12, 25 mg BID, Baseline Sign Score ≥1, N=41): (7.3%)
- Subjects Achieving PSSD Symptom Score 0 (%) (Week 12, 25 mg BID, Baseline Symptom Score ≥1, N=41): (7.3%)
- Change from Baseline in PSSD Sign Score, LSMean (Week 12, 25 mg BID): −39.0
- Change from Baseline in PSSD Symptom Score, LSMean (Week 12, 25 mg BID): −32.3
- Change from Baseline in PSSD Sign Score, Mean (Week 12, 25 mg QD): −34.8
- Change from Baseline in PSSD Sign Score, Median (Week 12, 25 mg QD): −40.0
- Change from Baseline in PSSD Symptom Score, Mean (Week 12, 25 mg QD): −31.5
- Change from Baseline in PSSD Symptom Score, Median (Week 12, 25 mg QD): −34.0
- Subjects Achieving PSSD Symptom Score 0 (%) (Week 12, 25 mg QD, Baseline Symptom Score ≥1, N=43): (14.0%)
- Change from Baseline in PSSD Sign Score, LSMean (Week 12, 25 mg QD): −30.7
- Change from Baseline in PSSD Symptom Score, LSMean (Week 12, 25 mg QD): −25.8
- Change from Baseline in PSSD Sign Score, Mean (Week 12, 50 mg QD): −42.5
- Change from Baseline in PSSD Sign Score, Median (Week 12, 50 mg QD): −46.0
- Change from Baseline in PSSD Symptom Score, Mean (Week 12, 50 mg QD): −36.3
- Change from Baseline in PSSD Symptom Score, Median (Week 12, 50 mg QD): −37.0
- Subjects Achieving PSSD Sign Score 0 (%) (Week 12, 50 mg QD, Baseline Sign Score ≥1, N=43): (4.7%)
- Subjects Achieving PSSD Symptom Score 0 (%) (Week 12, 50 mg QD, Baseline Symptom Score ≥1, N=42): (19.0%)
- Change from Baseline in PSSD Sign Score, LSMean (Week 12, 50 mg QD): −43.0
- Change from Baseline in PSSD Symptom Score, LSMean (Week 12, 50 mg QD): −35.7
- Change from Baseline in PSSD Sign Score, Mean (Week 12, 100 mg BID): −49.9
- Change from Baseline in PSSD Sign Score, Median (Week 12, 100 mg BID): −53.0
- Change from Baseline in PSSD Symptom Score, Mean (Week 12, 100 mg BID): −42.3
- Change from Baseline in PSSD Symptom Score, Median (Week 12, 100 mg BID): −41.0
- Subjects Achieving PSSD Sign Score 0 (%) (Week 12, 100 mg BID, Baseline Sign Score ≥1, N=42): (11.9%)
- Subjects Achieving PSSD Symptom Score 0 (%) (Week 12, 100 mg BID, Baseline Symptom Score ≥1, N=42): (26.2%)
- Change from Baseline in PSSD Sign Score, LSMean (Week 12, 100 mg BID): −48.8
- Change from Baseline in PSSD Symptom Score, LSMean (Week 12, 100 mg BID): −39.5
- Change from Baseline in PSSD Sign Score, Mean (Week 12, 100 mg QD): −39.1
- Change from Baseline in PSSD Sign Score, Median (Week 12, 100 mg QD): −45.0
- Change from Baseline in PSSD Symptom Score, Mean (Week 12, 100 mg QD): −27.9
- Change from Baseline in PSSD Symptom Score, Median (Week 12, 100 mg QD): −27.0
- Subjects Achieving PSSD Sign Score 0 (%) (Week 12, 100 mg QD, Baseline Sign Score ≥1, N=43): (7.0%)
- Subjects Achieving PSSD Symptom Score 0 (%) (Week 12, 100 mg QD, Baseline Symptom Score ≥1, N=43): (20.9%)
- Change from Baseline in PSSD Sign Score, LSMean (Week 12, 100 mg QD): −42.2
- Change from Baseline in PSSD Symptom Score, LSMean (Week 12, 100 mg QD): −34.7
- Change from Baseline in PSSD Sign Score, Mean (Week 16, 25 mg BID): −41.8
- Change from Baseline in PSSD Sign Score, Median (Week 16, 25 mg BID): −36.5
- Change from Baseline in PSSD Symptom Score, Mean (Week 16, 25 mg BID): −34.0
- Change from Baseline in PSSD Symptom Score, Median (Week 16, 25 mg BID): −28.0
- Subjects Achieving PSSD Sign Score 0 (%) (Week 16, 25 mg BID, Baseline Sign Score ≥1, N=41): (9.8%)
- Subjects Achieving PSSD Symptom Score 0 (%) (Week 16, 25 mg BID, Baseline Symptom Score ≥1, N=41): (17.1%)
- Change from Baseline in PSSD Sign Score, LSMean (Week 16, 25 mg BID): −40.9
- Change from Baseline in PSSD Symptom Score, LSMean (Week 16, 25 mg BID): −32.7
- Change from Baseline in PSSD Sign Score, Mean (Week 16, 25 mg QD): −38.6
- Change from Baseline in PSSD Sign Score, Median (Week 16, 25 mg QD): −43.0
- Change from Baseline in PSSD Symptom Score, Mean (Week 16, 25 mg QD): −35.8
- Change from Baseline in PSSD Symptom Score, Median (Week 16, 25 mg QD): −34.0
